# Laboratory results published in article PMC4533973, “Synthesis and Evaluation of Chloramphenicol Homodimers: Molecular Target, Antimicrobial Activity, and Toxicity against Human Cells” (PLoS ONE, 2015).
# Read-outs that look alike come from different tables or passages of the source.
# Assays:
# E. coli (WT) = assay: Antibacterial activity (growth inhibition, EC50); assay type: cell-based, Escherichia coli; conditions: for EC50: Escherichia coli, LB medium, 37°C, OD560; for EC50(cell growth)/IC50(puro): wild-type E. coli, IC50(puro) calculated from Ki* at 2 mM puromycin
# Excerpt: (§1) A.S. Mankin (University of Illinois). E. coli ΔtolC strain BL21 DE3 with impaired AcrAB-TolC, a proton-dependent MDR efflux pump causing multidrug resistance, was offered by Dr D.N. Wilson (University of Munich) and included in our study to test if this mechanism of resistance affects the efficacy of CAM dimers. […] I. Spiliopoulou (National Reference Laboratory for Staphylococci, School of Medicine, University of Patras, Greece). Finally, E. coli strain Rosetta(DE3)pLysS, containing a chloramphenicol resistant gene in the pLysS plasmid, was purchased from Novagen and was also included in our study. Briefly, S. aureus or E. coli cells (200 μl of a 0.700 OD560 preculture) containing wild-type or mutant ribosomes were added in 3.8 ml of LB (Luria-Bertani) medium and grown at 37°C in the presence or absence of CAM or CAM dimers until the optical density of the control culture (grown in the absence of drug) reached the value 0.700 at 560 nm. For E. faecium and P. aeruginosa cultures, TSB (Tryptic Soy Broth) medium was used, instead of LB medium, in order to achieve exponential doubling times between 25 and 35 minutes. From dose-response curves, the half-maximal effective concentration (EC50) for each compound and strain was estimated. EC50 represents the molar concentration of a compound that produces 50% of the maximal possible effect. The EC50 values were mathematically determined by non linear regression fitting of the observed culture optical-density values, expressed as the percentage of 0.700 (y), into Hill Equation, y=min+max−min/1+(x/EC50)^−n where min and max are the lowest and highest observed values of the culture optical density, respectively, x the concentration of the tested compound, and n the Hill coefficient that represents the largest absolute value of the curve slope. EC50 is equal to the x- value of the sigmoid’s midpoint. Fitting was performed using the Four Parameter Logistic Curve of the SigmaPlot Program Version 11.0 (Systat Software, Inc) for Exact Graphs and Data Analysis.
# E. coli (A2058G) = assay: Antibacterial activity (growth inhibition, EC50); assay type: cell-based, Escherichia coli; conditions: for EC50: Escherichia coli
# Excerpt: as §1
# E. coli (A2503C) = assay: Antibacterial activity (growth inhibition, EC50); assay type: cell-based, Escherichia coli; conditions: for EC50: Escherichia coli
# Excerpt: as §1
# E. coli (ΔtolC) = assay: Antibacterial activity (growth inhibition, EC50); assay type: cell-based, Escherichia coli; conditions: Escherichia coli, BL21-DE3
# Excerpt: as §1
# [1] = test system: E. coli Rosetta(DE3)pLysS; assay: Antibacterial activity (growth inhibition, EC50); assay type: cell-based, Escherichia coli; conditions: for EC50: Escherichia coli
# Excerpt: as §1
# P. aeruginosa (GRE5288) = assay: Antibacterial activity (growth inhibition, EC50); assay type: cell-based, Pseudomonas aeruginosa; conditions: Pseudomonas aeruginosa
# Excerpt: as §1
# [2] = test system: post-translocation ribosomal complex (complex C) derived from E. coli; assay: Inhibition of peptide-bond formation (puromycin reaction, AcPhe-puromycin synthesis); assay type: biochemical; conditions: for Ki: 25°C, buffer A; for k off: nonlinear regression of k eq
# Method: The inhibitory effect of CAM dimers on peptide-bond formation was studied using the puromycin reaction, a model reaction between puromycin and a post-translocation ribosomal complex (complex C) derived from E. coli. Since puromycin, a pseudo-substrate of PTase which binds to the A-site of the catalytic center, was present in excess, the reaction obeyed first-order kinetics. The first-order rate constant, k obs, at each concentration of puromycin was determined by fitting the x values into Eq 1, ln100/100−x=kobst (1) where x is the product AcPhe-puromycin, expressed as the percentage of complex C added in the reaction mixture, and t is the time of the reaction.
# A representative time plot obtained at 400 μM puromycin, in the absence of inhibitor, is illustrated in Fig 3A (upper line) and, as expected, is characterized by linearity. However, when the reaction proceeded in the presence of a CAM dimer, e.g. compound 5, the time plots were characterized by two unique features that distinguish them from a typical kinetic behavior. […] Second, the slopes of both progress curves varied as a function of the inhibitor concentration (Fig 3A, four lower curves). […] These kinetic results are consistent with compound 5 operating through an induced fit mechanism (Fig 3C), in which the inhibitor first binds rapidly to complex C to form the encounter complex CI, which then undergoes a slow conformational change to produce a final, tighter complex C*I. Corroborative evidence for the consistency of this model is provided by the hyperbolic shape of the equilibration plots (k eq versus [I]), in which k eq represents the apparent rate constant for the attainment of equilibrium among C, CI, and C*I (Fig 3B). If one-step mechanism of inhibition was applicable (C + I ⇄ C*I), k eq should be a linear function of [I] [27]. […] Because the isomerization constant k on/k off was calculated to be 3.6, the inhibition process was finally associated with high overall inhibition of peptide-bond formation (Ki* = 0.3 μM; S1 Fig, panel C). In addition, the slow k off rate (0.64 min^-1) provided prolonged residence time for compound 5 at the ribosome, a behavior potentially predicting good efficacy in vivo [28].
# The puromycin reaction, i.e. the reaction between complex C and excess puromycin (S), was carried out at 25°C in buffer A [100 mM Tris-HCl pH 7.2, 6 mM (CH3COO)2Mg, 100 mM NH4Cl and 6 mM 2-mercaptoethanol]. Under these conditions, the puromycin reaction obeys C + S ⇄KS CS→kcat C^′ + S pseudo-first-order kinetics and was analyzed as previously described.
# In the presence of CAM dimers, biphasic semi-logarithmic time plots were obtained. The slope of the straight line through the origin was seen as the value of the apparent rate constant, k obs(early), at the early phase of the reaction. Similarly, the slope of the second straight line was taken as the apparent rate constant, k obs(late), at the late phase of the puromycin reaction.
# [3] = overall inhibition constant (CI + C*I)
SMILES,EC50 (E. coli (WT)),EC50(cell growth)/IC50(puro) (E. coli (WT)),activity relative to CAM in inhibiting the growth of the A2058G mutant (E. coli (A2058G)),EC50 (E. coli (A2058G)),fold more active than CAM in inhibiting the A2503C mutant (E. coli (A2503C)),EC50 (E. coli (A2503C)),EC50 (E. coli (ΔtolC)),activity compared to CAM in inhibiting the growth of Rosetta(DE3)pLysS E. coli cells [1],EC50 [1],"EC50 (P. aeruginosa (GRE5288); TSB medium, clinical isolate with MexAB-OprM and MexXY efflux, read-out: EC50)","apparent association rate constant, (k on + k off)/K i [2]",fold more potent than homodimers of CAM previously synthesized by Berkov-Zrihen et al. ([2]; direct comparison is not accurate),Ki ([2]; encounter complex CI),k off [2],"Ki [2, 3]",fold more potent than CAM ([2]; ranking by K i*),EC50 (P. aeruginosa (GRE5288)),activity compared to CAM ([2]; ranking by K i*),fold less efficient than compound 5 ([2]; ranking by K i*)
"O=C(N[C@H](CO)[C@H](O)c1ccc([N+](=O)[O-])cc1)c1ccc(C(=O)N[C@H](CO)[C@H](O)c2ccc([N+](=O)[O-])cc2)cc1 [Compound 5, N^1,N^4-Bis ((1R,2R)-1,3-dihydroxy-1-(4-nitrophenyl)propan-2-yl)-terephthalamide]",25.3 ± 1.9 µM,14.06 ± 1.75,equivalent to CAM,18 ± 1.5 µM,approximately 2 fold,16.4 ± 1.5 µM,23.7 ± 1.5 µM,five-fold higher activity,23.5 ± 1.3 µM,15.2 ± 1.3 µM,3×10^4 M^1s^-1,~ 10 fold,1.4 ± 0.12 µM,0.0105 ± 0.0005 s⁻¹,0.3 ± 0.03 µM,3 fold,,,
"O=C(CCCCC(=O)N[C@H](CO)[C@H](O)c1ccc([N+](=O)[O-])cc1)N[C@H](CO)[C@H](O)c1ccc([N+](=O)[O-])cc1 [Compound 4, N^1,N^6-Bis((1R,2R)-1,3-dihydroxy-1-(4-nitrophenyl)propan-2-yl)adipamide]",83.6 ± 6.2 µM,7.45 ± 0.81,,97 ± 3.3 µM,,> 100 µM,98 ± 16.3 µM,,> 200 µM,,,,6 ± 0.54 µM,0.0167 ± 0.00067 s⁻¹,1.87 ± 0.15 µM,,72.6 ± 13.7 µM,lower,6 fold
